These results are taken from PMC8693998 (Journal of natural products, 2021).

“Also recorded” adds a separate entry of the source.

For assay [1], the target named is human μ-opioid receptor (MOR). The following applies: read-out: μ-opioid, Ki ± SEM; cited from earlier work.
Assay [2] relates to human μ-opioid receptor (MOR). To be noted: cited from earlier work.
Assay [3] has as its system hot plate latency in catheterized rats. The assay is described as follows: Rat hot plate antinociception assay. Type of assay: in vivo, Sprague–Dawley rats.
Another assay concerns the target human μ-opioid receptor (Homo sapiens, UniProt P35372). The format is binding.
Assay [4] deals with human μ-opioid receptor (MOR). The assay can be described thus: Human μ-opioid receptor binding affinity quoted from the literature. The following applies: fold lower affinity than found in the present study.

As a reminder, the Ki is the equilibrium dissociation constant of an inhibitor or competing ligand from its target.

human μ-opioid receptor, sequence (P35372 whole entry): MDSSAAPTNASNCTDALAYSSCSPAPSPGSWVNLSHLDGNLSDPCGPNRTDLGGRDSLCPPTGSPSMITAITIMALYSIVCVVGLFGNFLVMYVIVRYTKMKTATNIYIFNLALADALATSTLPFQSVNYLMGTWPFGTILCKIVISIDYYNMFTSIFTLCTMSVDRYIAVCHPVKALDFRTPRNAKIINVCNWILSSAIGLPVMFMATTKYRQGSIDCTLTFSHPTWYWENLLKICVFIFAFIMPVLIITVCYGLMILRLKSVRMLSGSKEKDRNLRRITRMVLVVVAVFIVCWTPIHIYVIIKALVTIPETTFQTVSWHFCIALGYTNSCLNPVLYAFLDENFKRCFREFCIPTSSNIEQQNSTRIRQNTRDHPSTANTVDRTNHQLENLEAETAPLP

For the molecule `CC[C@@H]1CN2CC[C@@]3(O)C(=Nc4cccc(OC)c43)[C@@H]2C[C@@H]1/C(=C\OC)C(=O)OC` [7-hydroxymitragynine (11), 7-hydroxymitragynine, reference compound], the Ki in assay [1] is 7.2 nM. For the same molecule, the “Type of activity at the human μ-opioid receptor” value (“Type of activity” for short) in assay [2] is listed as “partial agonists”.

In the case of `CC[C@@H]1CN2CC[C@@]3(C(=O)Nc4ccccc43)[C@@H]2C[C@@H]1/C(=C\OC)C(=O)OC` [corynoxine (1), corynoxine], in assay [3] (rat hot plate, 0.1 mg/kg (i.v.) naltrexone after cumulative doses, 0.1 mg/kg), the “Reversal of antinociception by naltrexone” value is “fully reversed; also recorded: antagonized by naltrexone”. In addition, in assay [3] (rats, nociceptive hot plate assay, fold more potent than morphine), the “Potency relative to morphine in hot plate assay” value came to 1.8 fold.

Consider `CC[C@@H]1CN2CC[C@]3(C(=O)Nc4ccccc43)[C@@H]2C[C@@H]1/C(=C\OC)C(=O)OC` [corynoxine B (2), corynoxine B], for which the “Loss of hMOR affinity relative to corynoxine (1)” value on human μ-opioid receptor (human μ-opioid receptor, […]) is listed as “about 6 times”. The “μ-opioid affinity in a recent study relative to the present study” value in assay [4] is “approximately 15 fold”. As for `CC[C@@H]1CN2CCc3c([nH]c4cccc(OC)c34)[C@@H]2C[C@@H]1/C(=C\OC)C(=O)OC` [mitragynine (6), mitragynine], the “Type of activity” value in assay [2] is “partial agonists”.

For the molecule `CC[C@@H]1CN2CC[C@]3(C(=O)Nc4cccc(OC)c43)[C@@H]2C[C@@H]1/C(=C\OC)C(=O)OC` [mitragynine oxindole B (4), mitragynine oxindole B], the “Loss of hMOR affinity relative to corynoxine B (2)” value on human μ-opioid receptor is on record as 16 fold. `CC[C@@H]1CN2CCc3c([nH]c4cccc(OC)c34)[C@H]2C[C@@H]1/C(=C\OC)C(=O)OC` [speciociliatine (9), speciociliatine]: in assay [2], the “Type of activity” value is reported as “partial agonists”.
